pEC50, pIC50: −log10 of the molar value.

Experiment [1] addresses T1, recombinant human PMYT-1 (Myt1 kinase) (Homo sapiens, UniProt Q99640).
T1 construct: full length PMYT-1 was expressed by baculovirus in insect cells using a N-terminal GST tag; purchased Invitrogen A30984; host or cells: insect cells (baculovirus)
T1 sequence (Q99640 1-499): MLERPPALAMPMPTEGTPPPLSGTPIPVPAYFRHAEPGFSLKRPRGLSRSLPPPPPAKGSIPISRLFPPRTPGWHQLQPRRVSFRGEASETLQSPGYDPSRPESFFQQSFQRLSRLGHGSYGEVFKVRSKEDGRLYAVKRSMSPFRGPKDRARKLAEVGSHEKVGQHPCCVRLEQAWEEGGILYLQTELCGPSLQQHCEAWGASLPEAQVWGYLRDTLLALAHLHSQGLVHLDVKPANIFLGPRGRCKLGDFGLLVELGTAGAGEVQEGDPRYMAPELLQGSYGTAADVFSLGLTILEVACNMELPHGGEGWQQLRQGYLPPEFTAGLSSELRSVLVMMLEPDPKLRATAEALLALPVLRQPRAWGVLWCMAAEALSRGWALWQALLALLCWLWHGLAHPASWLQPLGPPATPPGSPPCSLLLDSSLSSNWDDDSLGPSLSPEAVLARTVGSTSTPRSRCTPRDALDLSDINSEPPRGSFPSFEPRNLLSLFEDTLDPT
Briefly: LanthaScreen Europium (Eu) Kinase Binding Assay for Myt1 kinase. The settings on record: TR-FRET tracer 178 displacement, GST-tagged full length PMYT-1, 60 min, room temperature; mean IC50; read-out: LANTHA Kinase Binding for PMyt1. The source says:
We used a LanthaScreen Europium (Eu) Kinase Binding Assay to determine the binding of provided compounds to Myt1 kinase. The assay utilizes an Alexa Fluor 647-labeled ATP competitive kinase tracer that binds to the ATP binding site of a GST-tagged Myt1 kinase, while a europium (Eu) labeled antibody binds to the GST tag. The proximity of fluorescently labeled kinase tracer and europium (Eu) donor fluorophore antibody leads to fluorescence resonance energy transfer (FRET) to the fluorescence label (acceptor) upon excitation of the Eu (donor). Displacement of tracer from the ATP-binding site by a test compound disturbs the proximity between both labels thus lowering the FRET.
This time resolved-FRET binding assay was performed in white 384-well low volume plates (Greiner, cat #784075), at room temperature in kinase buffer A (KBA; Invitrogen cat # PV3189), consisting of 50 mM HEPES-NaOH (pH 7.5), 0.01% Brij-35, 10 mM MgCl2, and 1 mM EGTA. 5 μl of compound (diluted in reaction buffer, to 1% DMSO) were added to various wells in the plate, followed by 5 μl each of recombinant human PMYT-1 (full length PMYT-1 was expressed by baculovirus in insect cells using a N-terminal GST tag (MW: 80.8 kDa) (Invitrogen cat #A30984) and LanthaScreen Eu-anti-GST antibody (Invitrogen, cat #PV5594). After this, 5 μl of kinase tracer 178 (Invitrogen, cat #PV5593) was added to the plate and the plate was incubated for 60 minutes at room temperature. The final assay conditions in each well were: 3 nM tracer 178, 2.5 nM PMYT-1 and 1 nM Eu-labeled antibody in total assay volume of 15 μl. An Envision 2104 (Perkin-Elmer) Plate Reader with the following time-resolve fluorescence setting was used for performing LanthaScreen kinase binding assay. • Excitation 320 nm (30 nm bandpass) • Kinase Tracer Emission 665 nm (10 nm bandpass) • LanthaScreen Eu-anti-Tag Antibody Emission 615 nm (10 nm bandpass) • Dichroic Mirror Instrument dependent • Delay Time 100 μs • Integration Time 200 μs
To calculate the emission ratio, the acceptor/tracer emission ([…]) was divided by the antibody/donor emission ([…]) and the average of duplicate measurement was used for calculations. Data plotting, analysis of binding, and curve fitting was done using Excel add-in XLfit version 5.5.0.5 (IDBS, Guildford, United Kingdom).
On the technique in general: In TR-FRET formats the signal depends on donor and acceptor labels being close together.

The test system of experiment [2] is DAOY cells. Briefly: Cell Titer Glo viability assay. It counts as cell-based. The settings on record: Homo sapiens, 144 hours, Cell Titer Glo 2.0. The protocol:
(§1) DAOY medulloblastoma cell line (ATCC) was cultured in Minimum Essential Medium Eagle supplemented with 10% fetal calf serum (Sigma), 1% Penicillin-Streptomycin and 10 mM HEPES buffer (HyClone). Cell cultures were kept in a humidified incubator at 37° C. and 5% CO2. Cells were routinely tested for Mycoplasma contamination.
DAOY cells were seeded at a density of 250 cells per well in tissue culture 384 well plates (Corning Costar). After overnight incubation, cells were incubated with test compounds at concentrations ranging from 0.17 to 10,000 nM. Viability compared to untreated control was assessed at 144 hours using Cell Titer Glo® 2.0 Viability Assay (Promega).
Background: ATP-based viability assays read luminescence as a measure of living cells.

Experiment [3] has as its target T2, Myt1 Kinase (Homo sapiens, UniProt Q99640).
T2 construct: endogenous in cells; host or cells: DAOY medulloblastoma cells (ATCC)
T2 sequence (Q99640 1-499): T1 sequence (Q99640 1-499)
Briefly: AlphaLISA SureFire Ultra Human Phospho-CDK1 (Thr14) target engagement assay in DAOY cells. The settings on record: 4 h incubation, Cdk1 phosphorylated on threonine 14, read-out: TE Myt1 Kinase (AlphaLISA). Format: cell-based. The protocol: The following cellular assay was used to determine the extent to which the compounds disclosed herein inhibit phosphorylation of CDK1 at Thr 14.
as §1
For target engagement assessment, quantification of Cdk1 phosphorylated on threonine 14 was detected using the AlphaLISA® SureFire® Ultra™ Human Phospho-CDK1 (Thr14) assay (Perkin Elmer). DAOY cells were seeded into tissue culture 96-well plates (VWR) to a density of 10,000 cells per well. Twenty-four hours post-seeding cells were incubated for 4 h with test compounds at concentrations ranging from 7 to 5000 nM. Cells were washed with PBS and lysed in 50 μl AlphaLISA® lysis buffer before freezing at −80° C. Ten μl of the lysate was transferred to 384 well plates and incubated with AlphaLISA® donor and acceptor beads according to the manufacturer's instructions. Dose response curves and EC50 values were calculated and visualized using GraphPad Prism version 9.

For the molecule `Cc1ccc(O)c(C)c1-n1nc(-c2cc(-c3cccnc3)co2)c(C(N)=O)c1N` [Compound 94, 5-amino-1-(3-hydroxy-2,6-xylyl)-3-[4-(3-pyridyl)-2-furyl]-4-pyrazolecarboxamide], the pIC50 in experiment [1] is ≥ 8.00. Besides, the values for the pEC50 in experiment [2] and in experiment [3] were ≥ 6.30 and ≥ 6.60, respectively.
Consider `Cc1ccc(O)c(C)c1-n1nc(-c2ccc(Br)o2)c(C(N)=O)c1N` [Compound 73, 5-amino-3-(5-bromo-2-furyl)-1-(3-hydroxy-2,6-xylyl)-4-pyrazolecarboxamide], for which the pIC50 in experiment [1] was ≥ 8.00. For the same molecule, the pEC50 in experiment [2] is ≥ 6.30; in experiment [3], ≥ 6.60.
Turning to `Cc1coc(-c2nn(-c3c(C)ccc(O)c3C)c(N)c2C(N)=O)c1` [Compound 90, 5-amino-1-(3-hydroxy-2,6-xylyl)-3-(4-methyl-2-furyl)-4-pyrazolecarboxamide], the pIC50 in experiment [1] was ≥ 8.00. Also, the pEC50 is ≥ 6.30 in experiment [2] and ≥ 6.60 in experiment [3].
As for `Cc1ccc(O)c(C)c1-n1nc(-c2cc(C3CC3)co2)c(C(N)=O)c1N` [Compound 111, 5-amino-3-(4-cyclopropyl-2-furyl)-1-(3-hydroxy-2,6-xylyl)-4-pyrazolecarboxamide], in experiment [1], the pIC50 was 7.00 to 8.00. Further, the pEC50 is 6.00 to 6.30 in experiment [2] and ≥ 6.60 in experiment [3].
As to `Cc1ccc(O)c(C)c1-n1nc(-c2coc3ccccc23)c(C(N)=O)c1N` [Compound 82, 5-amino-3-(1-benzofuran-3-yl)-1-(3-hydroxy-2,6-xylyl)-4-pyrazolecarboxamide], in experiment [1], the pIC50 is ≥ 8.00. Moreover, the pEC50 in experiment [2] is < 6.00; in experiment [3], 6.00 to 6.30.
Consider `COc1ccc2oc(-c3nn(-c4c(C)ccc(O)c4C)c(N)c3C(N)=O)cc2c1` [Compound 115, 5-amino-1-(3-hydroxy-2,6-dimethylphenyl)-3-(5-methoxybenzofuran-2-yl)-1H-pyrazole-4-carboxamide], for which, in experiment [1], the pIC50 is ≥ 8.00. Besides, the pEC50 in experiment [2] is 6.00 to 6.30; in experiment [3], ≥ 6.60.
In the case of `Cc1ccc(O)c(C)c1-n1nc(-c2cc(C#CC(C)(C)O)co2)c(C(N)=O)c1N` [Compound 113, 5-amino-3-[4-(3-hydroxy-3-methyl-1-butynyl)-2-furyl]-1-(3-hydroxy-2,6-xylyl)-4-pyrazolecarboxamide], the pIC50 in experiment [1] is 7.00 to 8.00. Besides, the pEC50 in experiment [2] was < 6.00; in experiment [3], 6.30 to 6.60.
On to `Cc1ccc(O)c(C)c1-n1nc(-c2cc3ccccc3o2)c(C(N)=O)c1N` (single isomer, unassigned) [Compound 107, 5-amino-3-(benzofuran-2-yl)-1-(3-hydroxy-2,6-dimethylphenyl)-1H-pyrazole-4-carboxamide], for which the pIC50 in experiment [1] was ≥ 8.00. For the same molecule, the pEC50 in experiment [2] was ≥ 6.30; in experiment [3], ≥ 6.60.
In the same order, the values of `Cc1ccc(O)c(C)c1-n1nc(-c2ccc(C#N)o2)c(C(N)=O)c1N` [Compound 101, 5-amino-3-(5-cyano-2-furyl)-1-(3-hydroxy-2,6-xylyl)-4-pyrazolecarboxamide] are 7.00 to 8.00, < 6.00 and ≥ 6.60.
In the case of `CC#Cc1coc(-c2nn(-c3c(C)ccc(O)c3C)c(N)c2C(N)=O)c1` [Compound 114, 5-amino-1-(3-hydroxy-2,6-xylyl)-3-[4-(1-propynyl)-2-furyl]-4-pyrazolecarboxamide], the pIC50 in experiment [1] is ≥ 8.00. Further, the results for the pEC50 in experiment [2] and in experiment [3] were 6.00 to 6.30 and ≥ 6.60, respectively.
In the case of `CC(C)=Cc1coc(-c2nn(-c3c(C)ccc(O)c3C)c(N)c2C(N)=O)c1` [Compound 108, 5-amino-1-(3-hydroxy-2,6-xylyl)-3-[4-(2-methyl-1-propenyl)-2-furyl]-4-pyrazolecarboxamide], the pIC50 in experiment [1] was ≥ 8.00. The results for the pEC50 in experiment [2] and in experiment [3] were 6.00 to 6.30 and ≥ 6.60, respectively.
`Cc1ccc(O)c(C)c1-n1nc(-c2cc(Br)co2)c(C(N)=O)c1N` [Compound 79, 5-amino-3-(4-bromo-2-furyl)-1-(3-hydroxy-2,6-xylyl)-4-pyrazolecarboxamide]: the pIC50 in experiment [1] is ≥ 8.00. For the same molecule, the pEC50 was ≥ 6.30 in experiment [2] and ≥ 6.60 in experiment [3].
